According to patent US20160257697A1, “THIOPHENE-SUBSTITUTED TETRACYCLIC COMPOUNDS AND METHODS OFUSE THEREOF FOR THE TREATMENT OF VIRAL DISEASES” (priority 2013, published 2016):
Like-named read-outs stand apart in the source and are kept apart here.

Assays:
Experiment in all cases: microbe, parasite or virus in culture
Format in all cases: cell-based, Hepatitis C virus (HCV)
HCV replicon 1AY93H = conditions: read-out: 1A Y93H IC50; replicon 1AY93H; Replicon Assay A
How it was run: (§1)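 Three-day treatment of replicon cells (2000/well, 5% FBS, 0.5% DMSO), followed by TaqMan RT-PCR of replicon RNA with cyclophilin as internal control.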

HCV replicon 2B = conditions: Replicon Assay A
How it was run: as §1

HCV replicon 1A = conditions: replicon 1A, Replicon Assay A
How it was run: as §1

HCV replicon 1AQ30D = conditions: Replicon Assay B
HCV replicon 1B = conditions: replicon 1B, Replicon Assay B
[1] = read-out: 1A Q30D IC50, replicon 1AQ30D
[2] = Hepatitis C virus, read-out: 1A Q30D IC50 (nM), replicon 1AQ30D

Row | Structure (SMILES) | IC50 (HCV replicon 1AY93H) [pM] | IC50 (HCV replicon 2B; read-out: 2B IC50, replicon 2B) [nM] | IC50 (HCV replicon 1A) [pM] | IC50 (HCV replicon 1AQ30D; [1]) [nM] | IC50 (HCV replicon 1B) [pM] | IC50 (HCV replicon 1AQ30D; [2]) [nM] | IC50 (HCV replicon 1B; Hepatitis C virus) [pM] | IC50 (HCV replicon 2B; Hepatitis C virus, read-out: 2B IC50 (nM), replicon 2B) [nM] | IC50 (HCV replicon 1A; Hepatitis C virus) [pM]
1 | CCc1ccc(C2Oc3cc(-c4cnc([C@@H]5CCCN5C(=O)C(NC(=O)OC)C5CCOC(C)(C)C5)[nH]4)cc(F)c3-c3cc4cc(-c5cnc([C@@H]6CCCN6C(=O)C(NC(=O)OC)C6CCOC(C)(C)C6)[nH]5)ccc4n32)s1 (single isomer, unassigned) [Compound 296] | 2 | 0.005 | 2.8 | 0.005 | 3.3 |  |  |  | 
2 | CCc1ccc(C2Oc3cc(-c4cnc([C@@H]5CCCN5C(=O)C(NC(=O)OC)C5C[C@@H](C)O[C@@H](C)C5)[nH]4)cc(F)c3-c3cc4cc(-c5cnc([C@@H]6CCCN6C(=O)C(NC(=O)OC)C6C[C@@H](C)O[C@@H](C)C6)[nH]5)ccc4n32)s1 (single isomer, unassigned) [Compound 300] | 2 | 0.003 | 2.4 |  |  | 0.006 | 3.2 |  | 
3 | COC(=O)NC(C(=O)N1CCC[C@H]1c1ncc(-c2cc(F)c3c(c2)OC(c2ccc(C4CC4)s2)n2c-3cc3cc(-c4cnc([C@@H]5CCCN5C(=O)C(NC(=O)OC)C5C[C@@H](C)O[C@@H](C)C5)[nH]4)ccc32)[nH]1)C1C[C@@H](C)O[C@@H](C)C1 (single isomer, unassigned) [Compound 301] | 110 |  | 2.5 |  |  | 0.33 | 2 | 0.037 | 
4 | COC(=O)N[C@H](C(=O)N1CCC[C@H]1c1ncc(-c2cc(F)c3c(c2)OC(c2ccsc2)n2c-3cc3cc(-c4cnc([C@@H]5CCCN5C(=O)[C@@H](NC(=O)OC)C(C)C)[nH]4)ccc32)[nH]1)C(C)C (single isomer, unassigned) [Compound 317] | 110 | 0.94 |  |  |  | 2.58 | 1.6 |  | 1.2
5 | COC(=O)N[C@H](C(=O)N1CCC[C@H]1c1ncc(-c2ccc3c(c2)OC(c2ccc(C4CC4)s2)n2c-3cc3cc(-c4cnc([C@@H]5CCCN5C(=O)[C@@H](NC(=O)OC)C5CCOCC5)[nH]4)ccc32)[nH]1)C(C)C (single isomer, unassigned) [Compound 335] | 5.2 | 0.004 | 2.5 |  |  | 0.0639 | 1.2 |  | 
6 | CCc1ccc(C2Oc3cc(-c4cnc([C@@H]5CCCN5C(=O)[C@@H](NC(=O)OC)C(C)C)[nH]4)cc(F)c3-c3cc4cc(-c5cnc([C@@H]6CCCN6C(=O)[C@@H](NC(=O)OC)C6CCOCC6)[nH]5)ccc4n32)s1 (single isomer, unassigned) [Compound 336] | 62 | 0.128 |  | 1.5 |  |  | 1.1 |  | 2.2
7 | CCc1ccc(C2Oc3cc(-c4cnc([C@@H]5CCCN5C(=O)[C@@H](NC(=O)OC)C(C)C)[nH]4)cc(F)c3-c3cc4cc(-c5cnc([C@@H]6CCCN6C(=O)[C@@H](NC(=O)OC)C6CCOCC6)[nH]5)ccc4n32)s1 (single isomer, unassigned) [Compound 337] | 2.1 | 0.0039 | 1.6 | 0.0266 | 1.6 |  |  |  | 
8 | COC(=O)NC(C(=O)N1CCC[C@H]1c1ncc(-c2ccc3c(c2)cc2n3C(c3ccc(C4CC4)s3)Oc3cc(-c4cnc([C@@H]5CCCN5C(=O)[C@@H](NC(=O)OC)C(C)C)[nH]4)cc(F)c3-2)[nH]1)C1C2COCC21 (single isomer, unassigned) [Compound 339] | 4.7 | 0.0292 | 2 |  |  | 0.133 | 2.2 |  | 
9 | COC(=O)NC(C(=O)N1CCC[C@H]1c1ncc(-c2ccc3c(c2)cc2n3C(c3ccc(C4CC4)s3)Oc3cc(-c4cnc([C@@H]5CCCN5C(=O)[C@@H](NC(=O)OC)C(C)C)[nH]4)cc(F)c3-2)[nH]1)C1CCCCO1 (single isomer, unassigned) [Compound 340] | 20.7 | 0.0212 |  | 0.2 |  |  | 2.5 |  | 1.1
10 | COC(=O)NC(C(=O)N1CCC[C@H]1c1ncc(-c2ccc3c(c2)cc2n3C(c3ccc(C4CC4)s3)Oc3cc(-c4cnc([C@@H]5CCCN5C(=O)[C@@H](NC(=O)OC)C(C)C)[nH]4)cc(F)c3-2)[nH]1)C1CCCCO1 (single isomer, unassigned) [Compound 342] | 69 | 0.166 | 1.6 | 1.07 | 2.6 |  |  |  | 
11 | COC(=O)NC(C(=O)N1CCC[C@H]1c1ncc(-c2ccc3c(c2)cc2n3C(c3ccc(C4CC4)s3)Oc3cc(-c4cnc([C@@H]5CCCN5C(=O)[C@@H](NC(=O)OC)C(C)C)[nH]4)cc(F)c3-2)[nH]1)C1CCCCO1 (single isomer, unassigned) [Compound 343] | 370 | 0.829 | 1 | 0.704 | 2.3 |  |  |  | 
12 | CCCc1ccc(C2Oc3cc(-c4cnc([C@@H]5CCCN5C(=O)[C@@H](NC(=O)OC)C(C)C)[nH]4)cc(F)c3-c3cc4cc(-c5cnc([C@@H]6CCCN6C(=O)[C@@H](NC(=O)OC)C6CCOCC6)[nH]5)ccc4n32)s1 (single isomer, unassigned) [Compound 346] | 41.4 | 0.0374 |  | 0.223 |  |  | 1.3 |  | 1
13 | CCCc1ccc(C2Oc3cc(-c4cnc([C@@H]5CCCN5C(=O)[C@@H](NC(=O)OC)C(C)C)[nH]4)cc(F)c3-c3cc4cc(-c5cnc([C@@H]6CCCN6C(=O)[C@@H](NC(=O)OC)C6CCOCC6)[nH]5)ccc4n32)s1 (single isomer, unassigned) [Compound 347] | 2.3 | 0.0028 | 1.9 | 0.0129 | 2.6 |  |  |  | 
14 | COC(=O)NC(C(=O)N1CCC[C@H]1c1ncc(-c2ccc3c(c2)cc2n3C(c3ccc(F)s3)Oc3cc(-c4cnc([C@@H]5CCCN5C(=O)[C@@H](NC(=O)OC)C(C)C)[nH]4)cc(F)c3-2)[nH]1)C1C[C@@H](C)O[C@@H](C)C1 (single isomer, unassigned) [Compound 348] | 14.9 | 0.0326 |  |  |  | 0.387 | 2.7 |  | 1.9
15 | COC(=O)N[C@H](C(=O)N1CCC[C@H]1c1ncc(-c2cc(F)c3c(c2)OC(c2ccc(CC4CC4)s2)n2c-3cc3cc(-c4cnc([C@@H]5CCCN5C(=O)[C@@H](NC(=O)OC)C5CCOCC5)[nH]4)ccc32)[nH]1)C(C)C (single isomer, unassigned) [Compound 356] | 21.4 | 0.0175 |  | 0.152 |  |  | 2.5 |  | 2.5
16 | COC(=O)N[C@H](C(=O)N1CCC[C@H]1c1ncc(-c2cc(F)c3c(c2)OC(c2ccc(CC4CC4)s2)n2c-3cc3cc(-c4cnc([C@@H]5CCCN5C(=O)[C@@H](NC(=O)OC)C5CCOCC5)[nH]4)ccc32)[nH]1)C(C)C (single isomer, unassigned) [Compound 357] | 4.1 | 0.0026 | 2.1 | 0.0165 | 3 |  |  |  | 
17 | CCc1ccc(C2Oc3cc(-c4cnc(C5CCCN5C(=O)C(NC(=O)OC)C5C[C@@H](C)O[C@@H](C)C5)[nH]4)ccc3-c3cc4c(F)c(-c5cnc([C@@H]6CCCN6C(=O)[C@@H](NC(=O)OC)C(C)C)[nH]5)ccc4n32)s1 (single isomer, unassigned) [Compound 359] | 82.6 | 0.0519 | 3.6 |  |  | 0.848 | 1.9 |  | 
18 | COC(=O)N[C@H](C(=O)N1CCC[C@H]1c1ncc(-c2cc(F)c3c(c2)OC(c2ccc(C4CC4)s2)n2c-3c(F)c3cc(-c4cnc([C@@H]5CCCC5C(=O)[C@@H](NC(=O)OC)C5CCOCC5)[nH]4)ccc32)[nH]1)C(C)C (single isomer, unassigned) [Compound 362] | 77.5 | 0.0486 |  | 0.981 |  |  | 1.8 |  | 1.1
19 | COC(=O)N[C@H](C(=O)N1CCC[C@H]1c1ncc(-c2cc(F)c3c(c2)OC(c2ccc(C4CC4)s2)n2c-3c(F)c3cc(-c4cnc([C@@H]5CCCC5C(=O)[C@@H](NC(=O)OC)C5CCOCC5)[nH]4)ccc32)[nH]1)C(C)C (single isomer, unassigned) [Compound 363] | 4.8 | 0.0037 | 1.5 | 0.0439 | 2.1 |  |  |  | 
